Paper PMC12507957 (Drug Delivery and Translational Research, 2025)

Test: In vitro drug release of MTG from gels (Franz cell)
Settings: nylon membrane, time point not clearly stated (steady release up to 2 h)
Protocol: The in vitro permeation study was performed in triplicate using Franz diffusion cell apparatus with a diffusion area of ~ 0.8 cm^2 and a receptor volume of ~ 3 mL. The porcine skin was thawed at room temperature and cut into an appropriate size before mounting on the Franz diffusion cells. The receptor compartment was filled with PBS containing 0.02%w/v of sodium azide and a selected antioxidant. The Franz diffusion cells were placed into a water bath to maintain the skin temperature at 32 ± 0.5 °C. […] After 48-h permeation studies, the mass balance studies were performed. The samples were extracted for MTG content overnight before HPLC analysis.
BHT at the optimised concentration was also added accordingly. The gels were evaluated for their drug content by mixing the gel in methanol for overnight extraction of MTG before HPLC analysis (Sect. HPLC analysis). In vitro drug release studies were carried out with a similar experimental setup as described in Sect. In vitro permeation and mass balance studies but porcine skin was replaced with a 0.45 µm nylon membrane filter and 40 μL of gel was loaded on the membrane at the donor compartment. Subsequent in vitro permeation and mass balance studies were performed as described in Sect. In vitro permeation and mass balance studies by loading 40 μL of the gel on the skin.

`CC[C@@H]1CN2CCc3c([nH]c4cccc(OC)c34)[C@@H]2C[C@@H]1/C(=C\OC)C(=O)OC` [MTG, mitragynine] gave a Drug release percentage (1% MTG gel with DMSO) of 65.07 ± 7.59%, a Drug release percentage (1% MTG gel with PG) of 57.45 ± 3.18% and a Drug release percentage (1% MTG gel with Transcutol) of 78.48 ± 6.17%.
